Measured values taken from patent US20220079966A1, “HYALURONAN SYNTHESIS INHIBITION FOR TREATING AUTOIMMUNE, INFLAMMATORY, FIBROTIC, OR PROLIFERATIVE DISEASES OR DISORDERS” (The Board of Trustees of the Leland Stanford Junior …, priority 2018, published 2022).

Tests used:
[1] = system: DORmO mice; assay: DORmO mouse model of type 1 diabetes; assay type: in vivo; details: for HA accumulation in DORmO pancreatic islets (HA staining): 12 weeks of age, compared to untreated DORmO mice; for onset / progression of T1D as measured by blood glucose over time: fed from 5 weeks of age for 15 weeks
Description: 10×RIPmOVA (DORmO) mouse. DORmO mice carry a T-cell receptor transgene specific for OVA (emulating autoreactive CD4+ T-cells), while simultaneously expressing OVA in conjunction with the insulin gene promoter on pancreatic beta cells (emulating the autoantigen). All animals were bred and maintained under specific pathogen-free conditions, with free access to food and water, in the animal facilities at Stanford University Medical School (Stanford, Calif.). B6 db/db LeptR-/- mice were purchased from Jackson Laboratories (JAX) as well as DO11.10 transgenic mice. The DO11.10 mice were bred with Balb/c mice expressing RIPmOva (ovalbumin peptide amino acids 323-339; available at the Benaroya Research Institute) to generate the DORmO double-transgenic mice. In addition, C57Bl/6J mice were bred in-house at Stanford University School of Medicine. Beginning at four weeks of age, mice were weighed weekly as well as bled via the tail vein for the determination of their blood glucose level using a Contour® blood glucose meter and blood glucose monitoring strips (Bayer Healthcare). When two consecutive blood glucose readings of 250 mg/dL were recorded, animals were considered diabetic. When two consecutive blood glucose readings of 300 mg/dL were recorded, animals were euthanized. The 4-MU (Alfa Aesar) was pressed into mouse chow (TestDiet, St. Louis, Mo.) and irradiated before shipment, as previously described (Nagy N., et al., Circulation. 2010; 122(22):2313-2322). This chow formulation delivers 250 mg/mouse/day, yielding a serum drug concentration of 640.3±17.2 nmol/L in mice, as measured by HPLC-MS. 4-MUG ([…], Wood Dale, Ill.) was distributed in the drinking water at a concentration of 2 mg/ml, delivering 10 mg/mouse/day, yielding a serum drug concentration of 357.1±72.6 ng/mL in mice, as measured by LC-MS/MS. Mice were initiated on 4-MU and 4-MUG at five, eight or twelve weeks of age, unless otherwise noted, and were maintained on this diet until they were euthanized, unless otherwise noted. For analysis of Foxp3+ regulatory T-cell numbers in naïve mice, mice were treated daily with 0.5 mg of 4-MU or 1.0 mg 4-MUG in 200 μl 0.08% carboxymethylcellulose in saline by intra-peritoneal injection. Tissues for histochemistry were extracted from the animals and immediately transferred into 10% neutral buffered formalin (NBF). The tissue was processed to paraffin on a Leica ASP300 Tissue Processor (Leica Microsystems Inc.). Then 5 μm thick sections were cut on a Leica RM 2255 Microtomes (Leica Microsystems Inc.). All staining steps were performed on a Leica Bond-MaxTM automated immune histochemistry (IHC) stainer (Leica Microsystems Inc.). For HA affinity histochemistry (AFC) the BondTM Intense R Detection kit, a streptavidin-HRP system, (Leica Microsystems, Inc.) was used with 4 μg/mL biotinylated-HABP in 0.1% BSA-PBS as the primary. The BondTM Polymer Detection Kit was used for all other immunohistochemistry. This detection kit contains a goat anti-rabbit conjugated to polymeric HRP and a rabbit anti-mouse post primary reagent for use with mouse primaries. For Foxp3 and insulin (anti-insulin, ab7842 abcam) sections were incubated 60 min with 8 μg/mL rat anti-Foxp3 clone FJK-16s (eBioscience). Incubation with rabbit anti rat IgG (Vector Labs), post-primary was added in lieu of the post-primary reagent from the kit.

[2] = system: Foxp3+ regulatory T-cells; assay: Splenocyte regulatory T-cell analysis in wild type mice treated i.p. for 14 days; assay type: in vivo; details: 4-MU 0.5 mg i.p. or 4-MUG 1 mg i.p. daily for 14 days; for Foxp3+ amongst CD3+/CD4+ cells in splenocytes: flow cytometry
Protocol: The 4-MU (Alfa Aesar) was pressed into mouse chow (TestDiet, St. Louis, Mo.) and irradiated before shipment, as previously described (Nagy N., et al., Circulation. 2010; 122(22):2313-2322). This chow formulation delivers 250 mg/mouse/day, yielding a serum drug concentration of 640.3±17.2 nmol/L in mice, as measured by HPLC-MS. 4-MUG (ChemImpex, Wood Dale, Ill.) was distributed in the drinking water at a concentration of 2 mg/ml, delivering 10 mg/mouse/day, yielding a serum drug concentration of 357.1±72.6 ng/mL in mice, as measured by LC-MS/MS. Mice were initiated on 4-MU and 4-MUG at five, eight or twelve weeks of age, unless otherwise noted, and were maintained on this diet until they were euthanized, unless otherwise noted. For analysis of Foxp3+ regulatory T-cell numbers in naïve mice, mice were treated daily with 0.5 mg of 4-MU or 1.0 mg 4-MUG in 200 μl 0.08% carboxymethylcellulose in saline by intra-peritoneal injection.
Spleens were extracted from mice and cells were harvested by homogenization through a 70 μm cell strainer. Red blood cells were lysed using ACK buffer, after which the splenocyte suspensions were stained according to the protocol described above with the following fluorochrome-conjugated antibodies. V500-CD3 (500A2), BV785-CD4 (RM4-5) and A1488-Foxp3 (FJK-16s). Flow cytometry was performed on an LSRII and data analysis was done using FlowJo (Treestar).

[3] = cited from earlier work
[4] = system: CTLL2 cells; assay: HA synthesis inhibition in CTLL2 lymphoma cells; assay type: cell-based; details: lymphoma cell line
Protocol: (§1) Samples were thawed and assayed for HA levels using a modified HA ELISA as previously described (Nagy N., et al., J. Clin. Invest. 2015; 125(10):3928-3940). Each sample was analyzed in triplicate with a mean value obtained per sample. For cell normalization, LI-COR CellTag™ 700 Stain was used according to the manufactures protocol.

[5] = system: B16F10 cells; assay: HA production and HA staining by B16F10 melanoma cells (HA ELISA, HABP staining); assay type: cell-based, murine; details: for HA production (HA synthesis inhibition) by B16F10 cells: 48 hours of drug exposure, 30, 100, 300 μM, HA ELISA; for HA staining of B16F10 cells with HA binding protein (HABP): fluorescent staining
Protocol: To test this, murine melanoma cells (B16F10), a cell line known to produce abundant HA, were used. […] FIGS. 4D and 4E show HA production by B16F10 cells cultured for 48 hours in 4-MU (FIG. 1D) or 4-MUG (FIG. 1E). […] Data represent mean±SEM; *, p<0.05 by unpaired t test. Similar findings were seen as well in primary lymphocytes.
B16F10 cells were cultured in DMEM and were treated with different concentrations of 4-MU and 4-MUG (30, 100, 300 μM) for 24 and 48 hours. Cultured cells were lysed and analyzed for HA concentration determination using an HA ELISA. HA staining in B16F10 cells placed in 96 well plates were imaged using fluorescence microscopy. To measure 4-MU florescence intensity in B16F10 cells treated with 4-MU and 4-MUG, B16F10 cells were trypsinized and 4-MU fluorescence associated with the cells was analyzed by flow cytometry in the Pacific Blue channel using a BD™ LSRII flow cytometer. For permeabilization, after trypsinization, cells were incubated in methanol at −20° C. for 20 min and washed once before flow cytometric analysis.
as §1

Structure (SMILES) | HA accumulation in DORmO pancreatic islets (HA staining) [1] | onset / progression of T1D as measured by blood glucose over time [1] | CD4+ and CD3+ T-cell numbers in splenocytes [2] | Foxp3+ MFI amongst CD3+/CD4+ cells in splenocytes [2] | Foxp3+ amongst CD3+/CD4+ cells in splenocytes [2] | concentration of 4-MUG relative to parent molecule 4-MU ([3]; animal studies) [fold] | median plasma concentration of 4-MUG relative to 4-MU ([3]; mouse models) | HA synthesis inhibition in CTLL2 cells [4] | HA production (HA synthesis inhibition) by B16F10 cells [5] | HA staining of B16F10 cells with HA binding protein (HABP) [5] | insulin positive cells in pancreatic islets ([1]; DORmO mice) | Foxp3 regulatory T-cells in pancreatic islets (FoxP3 staining) ([1]; non-diabetic treated DORmO mice) | half-life ([3]; in mice) [min]
Cc1cc(=O)oc2cc(O[C@@H]3O[C@H](C(=O)O)[C@@H](O)[C@H](O)[C@H]3O)ccc12 [4-MUG, 4-methylumbelliferone-glucuronide] | decrease of HA accumulation | delayed the onset of T1D | not affected | increase in their expression of Foxp3 | increase of Foxp3+ regulatory T-cells | 300 | more than 3,000 fold | inhibited HA synthesis | concentration dependent inhibition of HA synthesis | reduced HA | – | – | –
Cc1cc(=O)oc2cc(O)ccc12 [4-MU, 4-methylumbelliferone] | decrease of HA accumulation | sufficient to stop diabetes progression | not affected | increase in their expression of Foxp3 | increase of Foxp3+ regulatory T-cells | – | – | HA synthesis inhibition | concentration dependent inhibition of HA synthesis | reduced HA | insulin positive cells were preserved | increase of Foxp3 regulatory T-cells | 3
